Columns and labels:
[1] = biological target: PKM1 (Homo sapiens (Human), UniProt P14618); assay: Recombinant PKM1 enzyme activity (same screening method); format: biochemical; conditions: screening concentration estimated at 50 μM
Procedure: (§1) Recombinant PKM1 and PKM2 were expressed in E. coli and purified using an Ni-NTA column according to standard protocols. PKM2 ([…]) was mixed with the following components: 0.6 mM ADP, 0.5 mM phosphoenolpyruvate, 200 μM NADH, 1-4 units of lactate dehydrogenase, 50 μM FBP, 1 mM DTT, 0.02% Brij 35, 5% glycerol, and the test molecule with a final DMSO concentration of 5%. A control reaction lacked the test molecule. The test molecules used in this example were selected from a library containing over 100,000 compounds.
This same screening method was then used to retest candidate molecules for the inhibition of PKM1 to determine which candidate compounds are active against PKM2, but not PKM1.
(§2) For in vitro studies, recombinant pyruvate kinase was incubated with the compound indicated (Table 2) and the activity of the enzyme assessed, as described in Example 4. To determine the IC50, enzyme activity was determined at various concentrations of inhibitor. The percentages shown in Table 2 reflect the inhibition of enzyme activity relative to the absence of compound when the enzyme is incubated with 50 μM of the compound indicated. For in vivo studies, human lung cancer cell lines were incubated with increasing concentrations of the compound indicated and the concentration required to kill >90% of the cells is reported.

[2] = system: H1299 and A549 human lung cancer cells; assay: Killing of human lung cancer cell lines by increasing concentrations of compound; format: cell-based; conditions: concentration required to kill >90% of the cells, read-out: IC50 in vivo
Procedure: as §2
Human lung cancer cells were exposed to increasing concentrations of candidate compounds A2 and D1. The toxicity of the compounds was measured by determining the percentage of surviving cells. Cells were mock-treated with DMSO as a control. […] depicts the toxicity of compounds A2 (FIG. 8a) and D1 (FIG. 8b) in H1299 cells compared to mock treatment with DMSO.

[3] = biological target: PKM2 (Homo sapiens (Human), UniProt P14618); assay: Recombinant PKM2 enzyme activity in the presence of FBP (LDH-coupled NADH consumption); format: biochemical; conditions: for IC50: recombinant pyruvate kinase, enzyme activity at various concentrations of inhibitor, read-out: IC50 in vitro (PKM2); for PKM2 inhibition of enzyme activity relative to the absence of compound: screening concentration estimated at 50 μM
Chain of PKM2 (P14618 whole entry, species assumed): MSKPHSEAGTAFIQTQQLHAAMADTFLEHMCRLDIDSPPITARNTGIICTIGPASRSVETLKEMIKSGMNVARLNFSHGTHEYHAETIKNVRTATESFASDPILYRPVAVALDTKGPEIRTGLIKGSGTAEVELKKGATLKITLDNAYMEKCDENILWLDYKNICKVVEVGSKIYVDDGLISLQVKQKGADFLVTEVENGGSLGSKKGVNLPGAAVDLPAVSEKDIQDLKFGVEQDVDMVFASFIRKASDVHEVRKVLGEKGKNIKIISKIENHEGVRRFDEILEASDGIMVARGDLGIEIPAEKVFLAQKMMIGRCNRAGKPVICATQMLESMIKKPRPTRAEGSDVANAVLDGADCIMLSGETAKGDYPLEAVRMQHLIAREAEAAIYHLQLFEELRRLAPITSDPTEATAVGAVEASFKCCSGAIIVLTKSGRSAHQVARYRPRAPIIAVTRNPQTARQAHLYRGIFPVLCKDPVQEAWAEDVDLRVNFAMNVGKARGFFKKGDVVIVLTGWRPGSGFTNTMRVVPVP
Procedure: as §1
Primary screening was performed using PKM2 in the presence of FBP. […] Activity was measured by monitoring the concentration of NADH. Pyruvate, produced by the enzymatic activity of pyruvate kinase, is converted into lactate by lactate dehydrogenase, which requires the consumption of NADH (NADH→NAD^+). Thus, the activity of PKM2 was indirectly measured by monitoring the consumption of NADH through fluorescence assays. Additionally, the activity of the PKM2 enzyme was directly monitored by measuring the production of ATP, as ATP is produced when phosphoenolpyruvate is converted to pyruvate by PKM2.
as §2

[4] = system: FL5.12 cells; assay: Toxicity in FL5.12 cells with and without growth factor (IL-3); format: cell-based, mouse; conditions: twenty hours of treatment, presence and absence of IL-3
Procedure: Mouse pre-lymphocyte cells (FL5.12 cells) were treated with candidate compounds A2 (FIG. 9a) and D1 (FIG. 9b) for twenty hours in the presence and absence of growth factor (IL-3).

Chain of PKM1 (P14618 other isoform, or with tags, fused parts or gaps, species assumed): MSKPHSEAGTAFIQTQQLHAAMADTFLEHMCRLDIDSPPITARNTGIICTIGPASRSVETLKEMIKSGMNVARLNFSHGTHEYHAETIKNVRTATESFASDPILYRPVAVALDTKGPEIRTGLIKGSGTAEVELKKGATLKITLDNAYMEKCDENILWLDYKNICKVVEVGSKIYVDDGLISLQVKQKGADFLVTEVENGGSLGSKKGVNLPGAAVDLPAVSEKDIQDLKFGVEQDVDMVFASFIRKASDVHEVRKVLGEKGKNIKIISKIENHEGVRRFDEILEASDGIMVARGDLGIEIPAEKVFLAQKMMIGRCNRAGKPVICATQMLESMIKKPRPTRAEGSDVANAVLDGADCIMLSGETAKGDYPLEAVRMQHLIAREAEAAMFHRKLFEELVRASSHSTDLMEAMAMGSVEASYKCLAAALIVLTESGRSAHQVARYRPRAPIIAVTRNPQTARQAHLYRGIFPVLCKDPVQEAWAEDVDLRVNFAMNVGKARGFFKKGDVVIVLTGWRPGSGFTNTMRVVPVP

SMILES	PKM1 inhibition of enzyme activity relative to the absence of compound [1]	Concentration killing >90% of cells [2]	IC50 [3]	PKM2 inhibition of enzyme activity relative to the absence of compound [3]	Toxicity in FL5.12 cells, effect of growth factor withdrawal [4]
CC(=O)CSc1ccc(-n2c(C)ccc2C)cc1 [Compound A1]	15%	> 100 µM	~90 µM	50%	–
CCCCCN1/C(=C/C=C/c2n(CCCCC)c3cc(Cl)c(Cl)cc3[n+]2CCCC)N(CCCC)c2cc(Cl)c(Cl)cc21 [Compound B1]	0%	–	~10 µM	85%	–
O=C(O)CN1C(=O)/C(=C/c2ccc(OC(=O)c3ccccc3I)cc2)SC1=S [Compound D1]	15%	~250 µM	20 µM	70%	Growth factor withdrawal increases the toxicity
O=C1C2C3C=CC(C3)C2C(=O)N1c1nc[nH]n1 (stereo not shown) [Compound H1]	–	> 500 µM	90 µM	–	–
C=C(NC(C)C)c1cc2c(=O)oc3ccc(C)cc3c2s1 [Compound G1]	–	> 500 µM	~70 µM	–	–

Source: patent US8877791B2, “Inhibitors of pyruvate kinase and methods of treating disease” (Beth Israel Deaconess Medical Center, Inc., priority 2006, dated 2014)
